According to paper PMC7922534, “Searching for Peptide Inhibitors of T Regulatory Cell Activity by Targeting Specific Domains of FOXP3 Transcription Factor” (Biomedicines, 2021):
One block for each molecule: values may come before it.

Legend:
[1] = test system: murine CD4+CD25+ Treg cells; assay: In vitro Treg inhibition: anti-CD3 stimulated effector T cells co-cultured with Treg cells, tritiated thymidine incorporation; assay type: cell-based, mouse; conditions: peptide 50 μM; for Treg inhibitory capacity in vitro (proliferation of effector T cells with anti-CD3 in presence of Treg): BALB/c Teff 10^5 + Treg 10^4 cells/well, 3 days, tritiated thymidine; for toxicity in Teff&Treg co-cultures: cpm below cpm of Teff&Treg co-cultures without peptide
Experimental: (§1) In vitro assays were carried out using (i) the Karpas 299 human cell line (ACC-31, DSMZ, Germany), derived from a human lymphoma with a regulatory T cell profile or (ii) using natural Treg cells isolated from the murine splenocytes. To evaluate the effect of peptides on the immunosuppressive activity of the Karpas 299 cell line, a “mixed lymphocyte reaction” (MLR) assay was carried out using peripheral blood mononuclear cells (PBMCs) from two donors (previously tested to induce a strong MLR reaction in co-culture) (1 × 10^5 cells/well per each PBMC) in the presence or absence of Karpas 299 (1 × 10^4 cells/well). Peptides were added at 50 μM to the co-cultures to evaluate their capacity to restore the production of interferon-gamma (IFN-γ) inhibited by Karpas 299. After 48 hours, the supernatants were extracted to measure interferon-gamma (IFN-γ) by means of a commercial ELISA (Pharmingen, San Diego, CA, US). In vitro assays for Treg inhibition using natural Treg cells: Murine CD4+CD25+ (Treg cells), and CD4+CD25-T-cells (effector T cells) were purified from murine spleen cells by using a murine regulatory T-cell isolation kit (Miltenyi Biotec, Bergisch Gladbach, Germany) according to the manufacturer’s instructions. The purity of the resulting T-cell populations was confirmed to be >95% by flow cytometry. Inhibition of murine T regulatory cell function was measured in an in vitro assay of T-cell stimulation. Effector T cells (10^5 cells/well) from BALB/c mice were stimulated in vitro with 2, 5 μg/mL of anti-mouse CD3 antibody (Pharmingen) in the presence/absence of purified Treg cells (10^4 cells/well) and the indicated peptides (50 μM). T-cell proliferation was measured 3 days later as previously described. Percentage of Treg inhibition was calculated using the following formula: % inhibition= 100*((cpm of Teff&Treg co-cultures in the presence of peptide - cpm of Teff&Treg co-cultures)/(cpm of Teff - cpm of Teff&Treg co-cultures)). The Institutional Review Board on Human Subjects (Clínica Universidad de Navarra, Ref 2016.118) approved this research, and informed consent was obtained from all blood donors.

[2] = test system: FOXP3; assay: Surface plasmon resonance binding of peptides to a chip coated with FOXP3; conditions: peptide 10 μM; Figure 4A
Experimental: (§2) The screening of peptide binders to FOXP3 was performed by surface plasmon resonance (SPR) using a ProteOn XPR36 (Bio-Rad, Hercules CA, USA) optical biosensor. Recombinant protein FOXP3-6His produced and purified from E-coli was immobilized covalently onto a GLC sensor chip (Bio-Rad) using the coupling reagents sulfo-NHS (N-Hydroxysulfosuccinimide) and EDC (1-Ethyl-3-(3-dimethylaminopropyl) carbodiimide, (Bio-Rad) as previously described. Peptide solutions (10 μM) were injected by triplicate in running buffer (phosphate-buffered saline, 0.005% (v/v) Tween 20, pH 7.4) at a flow of 30 μL/min. The interspot signal (obtained in the chip surface not immobilized with protein) was used as reference. FOXP3/NFAT1 and FOXP3/AML1 interactions were analyzed by Alphascreen technology as previously described according to the manufacturer’s protocol (Perkin Elmer, Benelux). Reactions were performed in a 40 μL final volume in 96-well Optiwell microtiter plates (Perkin Elmer). The reaction buffer contained 20 mM HEPES (4-(2-hydroxyethyl)-1-piperazineethanesulfonic acid), pH 7.9, 200 mM KCl, 1 mM MgCl2 and 0.05% bovine serum albumin (BSA). Recombinant NFAT1 expressed with a hexa-Histidine tag was captured by nickel chelate acceptor beads, whereas recombinant FOXP3 expressed with a GST (glutathione S-transferase) tag was captured by glutathione donor beads (Perkin Elmer). For FOXP3 dimerization assays, GST-tagged FOXP3 and His-tagged FOXP3 were co-cultured in the presence or absence of the indicated peptides for 1 h. Then, donor and acceptor beads were added as described above and incubated for 2 h. FOXP3/AML1 interaction was measured following a similar protocol using FOXP3-GST and AML1-His proteins. Exposure of the reaction to direct light was avoided as much as possible, and the emission of light from the acceptor beads was measured in the EnVision plate reader after the indicated incubation period (Perkin Elmer, Benelux).

[3] = test system: 4T1-FOXP3 cells; assay: Proliferation of 4T1-Ctrl and 4T1-FOXP3 tumor cells in vitro; assay type: cell-based; conditions: peptide 50 μM, Figure 2C
Experimental: The cell line 4T1-FOXP3 expressing FOXP3 was generated. 4T1-WT cells were transfected with empty pcDNA3.1 or with pcDNA3.1 FOXP3, expressing FOXP3 gene and neomycin (which confers resistance to G418 antibiotic) to generate 4T1-Ctrl and 4T1-Foxp3 cells. Briefly, 8 × 10^5 cells were seeded in 6-well culture plates one day prior to transfection. The cultures were 60–80% confluent at the time of transfection. Cells were transfected with 5 ug plasmid DNA per well for 6 hours using lipofectimine 2000 transfection reagent (Invitrogen). After 48 hours, 0.3 mg/mL of G418 drug (GIBCO) was added to the culture during 14 days for the selection of resistant cells. These cells were used in vitro to measure the effect of peptides to overcome the proliferative capacity inhibited by FOXP3. In addition, 4T1-FOXP3 and 4T1-Ctrl cells were injected in vivo (10^5 cells/ mouse) subcutaneously or intravenously to compare their capacity to induce tumors and lung metastases. Murine Lewis lung carcinoma expressing OVA, LLCOVA were kindly provided by Dr. Daniel Ajona (CIMA). The murine colon adenocarcinoma cell line MC38, LLOOVA, 4T1-Ctrl, and 4T1-FOXP3 were cultured in mouse medium (RPMI 1640, 10% fetal calf serum (Sigma), 100 U/mL penicillin, 100 μg/mL streptomycin (Invitrogene), […] Gentamicin (Gibco), 2 mM L-Glutamine (Lifetechnologies), […] β-mercaptoethanol (Sigma), and fungizone (GIBCO). All cell lines were cultured at 37 °C in a humidified atmosphere with 6.5% CO2.

[4] = test system: Karpas 299 human cell line; assay: Mixed lymphocyte reaction with Karpas 299 Treg cell line, IFN-γ by ELISA; assay type: cell-based; conditions: MLR of PBMCs from two donors + Karpas 299, peptide 50 μM, 48 h
Experimental: as §1

[5] = test system: murine CD4+CD25+ Treg cells; assay: In vitro Treg inhibition: anti-CD3 stimulated effector T cells co-cultured with Treg cells, tritiated thymidine incorporation; assay type: cell-based, mouse; conditions: peptide 10 μM (not shown)
[6] = test system: FOXP3/NFAT1; assay: FOXP3/NFAT interaction by Alphascreen; assay type: binding; conditions: alpha screen; Figure 6C
Experimental: as §2, with “The reaction buffer contained 20 mM HEPES (4-(2-hydroxyethyl)-1-piperazineethanesulfonic acid), pH 7.9, 200 mM KCl, 1 mM MgCl2 and 0.05% bovine serum albumin (BSA). Recombinant NFAT1 expressed with a hexa-Histidine tag was captured by nickel chelate acceptor beads, whereas recombinant FOXP3 expressed with a GST (glutathione S-transferase) tag was captured by glutathione donor beads (Perkin Elmer). For FOXP3 dimerization assays, GST-tagged FOXP3 and His-tagged FOXP3 were co-cultured in the presence or absence of the indicated peptides for 1 h. Then, donor and acceptor beads were added as described above and incubated for 2 h.” left out

[7] = target: T1, FOXP3-6His (UniProt Q9BZS1-1 1-417); assay: SPR; FOXP3-6His immobilised covalently on a GLC sensor chip (ProteOn XPR36); peptides 10 uM injected in triplicate; PBS, 0.005% Tween 20, pH 7.4; 30 uL/min; interspot signal as reference; conditions: both partners purified
T1 construct: FOXP3 (Forkhead box protein 3) transcription factor; also called His-tagged FOXP3
T1 sequence (looked up): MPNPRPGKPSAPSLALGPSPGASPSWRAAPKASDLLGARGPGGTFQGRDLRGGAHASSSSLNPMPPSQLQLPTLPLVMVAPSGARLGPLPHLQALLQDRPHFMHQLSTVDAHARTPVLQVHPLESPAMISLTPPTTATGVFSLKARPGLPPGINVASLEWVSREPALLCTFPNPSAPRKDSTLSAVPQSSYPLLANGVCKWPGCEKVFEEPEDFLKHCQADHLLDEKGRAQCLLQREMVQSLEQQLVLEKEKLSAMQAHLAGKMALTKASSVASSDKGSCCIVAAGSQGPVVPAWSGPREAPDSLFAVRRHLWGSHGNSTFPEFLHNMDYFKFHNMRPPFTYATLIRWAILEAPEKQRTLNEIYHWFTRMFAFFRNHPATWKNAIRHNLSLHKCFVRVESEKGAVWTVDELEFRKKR

Molecule: WAILEAPEKQRTLNE [F348–362, 15-mer overlapping peptide from the FKH domain of FOXP3]
Treg inhibitory capacity in vitro (proliferation of effector T cells with anti-CD3 in presence of Treg) [1]: strong Treg inhibitory capacity

Molecule: CGISYGRKKRRQRRR-KCFVRVESEKG [TAT-393–403, peptide F393–403 fused to the cell-penetrating peptide TAT (Tat 44–57)]
Treg inhibitory capacity in vitro (proliferation of effector T cells with anti-CD3 in presence of Treg) [1]: significantly improved the Treg inhibitory capacity

Molecule: IRGLRFGPGFMWPTL [p50]
effect on tumor-suppressor activity of FOXP3 (proliferation of 4T1-FOXP3 versus 4T1-Ctrl cells) [3]: able to inhibit the tumor-suppressor activity
Treg inhibitory capacity (Karpas MLR assays) [4]: potential Treg inhibitory capacity

Molecule: RRIVSQLLHPLWSMP [p61]
Treg inhibitory capacity (Karpas MLR assays) [4]: potential Treg inhibitory capacity

Molecule: KCFVRVESEKGAVWT [F393–407, 15-mer overlapping peptide from the FKH domain of FOXP3]
level of T-cell proliferation in presence of peptide versus anti-CD3 stimulated T-cells without Treg [1]: surpassed the maximum proliferation of T-cells stimulated with anti-CD3 in the absence of Treg cells
Treg inhibitory capacity in vitro (proliferation of effector T cells with anti-CD3 in presence of Treg) [1]: strong Treg inhibitory capacity

Molecule: IYHWFTRMFAFFRNH [F363–377, 15-mer overlapping peptide from the FKH domain of FOXP3]
toxicity in Teff&Treg co-cultures [1]: some toxicity
Treg inhibitory capacity in vitro [5]: did not exhibit Treg inhibitory capacity
toxicity in Teff&Treg co-cultures [5]: no toxicity was observed
binding capacity to FOXP3 by SPR (FKH domain peptides) [2]: good binders to FOXP3

Molecule: NLSLHKCFVRVESEK [F388–402, 15-mer overlapping peptide from the FKH domain of FOXP3]
Treg inhibitory capacity in vitro (proliferation of effector T cells with anti-CD3 in presence of Treg) [1]: strong Treg inhibitory capacity

Molecule: RSRFFAPFAFLSSGL [p53]
Treg inhibitory capacity (Karpas MLR assays) [4]: potential Treg inhibitory capacity

Molecule: RRQIHLVLPWRAVQS [p52]
effect on tumor-suppressor activity of FOXP3 (proliferation of 4T1-FOXP3 versus 4T1-Ctrl cells) [3]: able to inhibit the tumor-suppressor activity
Treg inhibitory capacity (Karpas MLR assays) [4]: potential Treg inhibitory capacity

Molecule: RVESEKGAVW [397–406 L, linear version of peptide F397–406 from the FKH domain]
disruption of FOXP3-NFAT heterodimerization [6]: retained the activity to impair Foxp3/NFAT interaction

Molecule: RTLNEIYHWFTRMFA [F358–372, 15-mer overlapping peptide from the FKH domain of FOXP3]
Treg inhibitory capacity in vitro (proliferation of effector T cells with anti-CD3 in presence of Treg) [1]: strong Treg inhibitory capacity

Molecule: GGFSLHPWWRFNHDR [p65]
effect on tumor-suppressor activity of FOXP3 (proliferation of 4T1-FOXP3 versus 4T1-Ctrl cells) [3]: able to inhibit the tumor-suppressor activity
Treg inhibitory capacity (Karpas MLR assays) [4]: potential Treg inhibitory capacity

Molecule: GLRERMRLPFFVFGG (source: synthetic peptide) [p49]
SPR response [7]: > 500 RU

Molecule: IRGLRFGPGFMWPTL (source: synthetic peptide) [p50]
SPR response [7]: > 500 RU

Molecule: GMRFFPWLGVGFAMR (source: synthetic peptide) [p47]
SPR response [7]: > 500 RU

Molecule: SSKSLAAPLGLFVVG (source: synthetic peptide) [p55]
SPR response [7]: > 500 RU

More lines, main results first:

binding capacity to FOXP3 by SPR (FKH domain peptides) [2]: good binders to FOXP3
Molecule: PATWKNAIRHNLSLH [F378–392, 15-mer overlapping peptide from the FKH domain of FOXP3]

binding capacity to FOXP3 by SPR (FKH domain peptides) [2]: good binders to FOXP3
Molecule: NAIRHNLSLHKCFVR [F383–397, 15-mer overlapping peptide from the FKH domain of FOXP3]

binding capacity to FOXP3 by SPR (FKH domain peptides) [2]: good binders to FOXP3
Molecule: TRMFAFFRNHPATWK [F368–382, 15-mer overlapping peptide from the FKH domain of FOXP3]
toxicity in Teff&Treg co-cultures [1]: some toxicity
Treg inhibitory capacity in vitro [5]: did not exhibit Treg inhibitory capacity
toxicity in Teff&Treg co-cultures [5]: no toxicity was observed

SPR response [7]: > 500 RU
Molecule: RRQIHLVLPWRAVQS (source: synthetic peptide) [p52]

SPR response [7]: > 500 RU
Molecule: GGFSLHPWWRFNHDR (source: synthetic peptide) [p65]

SPR response [7]: > 500 RU
Molecule: RFWDYDLMLRVLRPL (source: synthetic peptide) [p59]

SPR response [7]: > 500 RU
Molecule: RDFQSFRKMWPFFAM (source: synthetic peptide) [p60]
